Earlier results in patent US8063249B1, “Substituted triphenyl butenes” (Olema Pharmaceuticals, Inc., priority 2008, dated 2011).
Read-outs that look alike come from different tables or passages of the source.

Assays:
UGT 1A10 = biological target: T1, UGT 1A10 (Homo sapiens, UniProt Q9HAW8)
T1 sequence (Q9HAW8 26-530): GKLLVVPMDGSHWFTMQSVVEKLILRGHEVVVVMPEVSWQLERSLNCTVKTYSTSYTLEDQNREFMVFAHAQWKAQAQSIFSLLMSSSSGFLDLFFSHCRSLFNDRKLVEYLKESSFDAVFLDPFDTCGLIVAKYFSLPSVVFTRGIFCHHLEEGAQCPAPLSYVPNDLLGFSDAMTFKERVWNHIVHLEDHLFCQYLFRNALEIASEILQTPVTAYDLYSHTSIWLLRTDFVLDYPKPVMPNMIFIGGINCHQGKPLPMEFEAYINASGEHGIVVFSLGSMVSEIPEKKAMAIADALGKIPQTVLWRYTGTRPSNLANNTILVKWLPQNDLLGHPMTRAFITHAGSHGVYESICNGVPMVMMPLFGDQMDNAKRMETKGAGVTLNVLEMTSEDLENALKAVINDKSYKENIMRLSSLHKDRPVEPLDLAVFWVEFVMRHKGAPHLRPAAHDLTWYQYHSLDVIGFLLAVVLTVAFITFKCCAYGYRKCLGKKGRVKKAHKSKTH

ER = conditions: for binding constants for the ER compared with estradiol: relative to estradiol, from Jordan, Steroids 2007; for binding to the ER: statement in words, from the literature
UGT 1A8 = biological target: T2, UGT 1A8 (Homo sapiens, UniProt Q9HAW9)
T2 sequence (Q9HAW9 26-530): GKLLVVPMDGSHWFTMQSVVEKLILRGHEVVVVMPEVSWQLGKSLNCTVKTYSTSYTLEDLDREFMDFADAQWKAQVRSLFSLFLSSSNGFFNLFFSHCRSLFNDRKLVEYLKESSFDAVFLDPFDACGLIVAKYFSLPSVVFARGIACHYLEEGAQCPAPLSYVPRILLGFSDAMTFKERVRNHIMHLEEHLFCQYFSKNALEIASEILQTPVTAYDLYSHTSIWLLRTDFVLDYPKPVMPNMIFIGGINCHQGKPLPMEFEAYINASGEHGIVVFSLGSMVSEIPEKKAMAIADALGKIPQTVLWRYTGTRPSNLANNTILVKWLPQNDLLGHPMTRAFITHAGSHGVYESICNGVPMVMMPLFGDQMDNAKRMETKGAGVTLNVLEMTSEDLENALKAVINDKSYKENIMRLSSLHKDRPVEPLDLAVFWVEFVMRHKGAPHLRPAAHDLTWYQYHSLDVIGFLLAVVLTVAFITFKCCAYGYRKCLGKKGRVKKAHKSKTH

[1] = hydroxy group, from Sun et al. 2007

Compound	substrate for O-glucuronidation by UGT 1A10 (UGT 1A10)	binding constants for the ER compared with estradiol (ER)	binding to the ER (ER)	substrate for O-glucuronidation by UGT 1A8 (UGT 1A8)	substrate for O-glucuronidation by UGT 1A10 (UGT 1A10; [1])	substrate for O-glucuronidation by UGT 1A8 (UGT 1A8; [1])
4-hydroxy tamoxifen	substrates for O-glucuronidation	roughly equal to that of estradiol	bind with high affinity	substrates for O-glucuronidation		
CC/C(=C(\c1ccccc1)c1ccc(OCCN(C)C)cc1)c1ccccc1 [Tamoxifen, tamoxifen]			binds very poorly			
CC/C(=C(\c1ccc(O)cc1)c1ccc(OCCNC)cc1)c1ccccc1 [endoxifen, 4-hydroxy N-desmethyl tamoxifen]		roughly equal to that of estradiol	bind with high affinity		substrates for O-glucuronidation	substrates for O-glucuronidation
CCC(=C(c1ccc(OCCNC)cc1)c1ccc(OC2OC(C(=O)O)C(O)C(O)C2O)cc1)c1ccccc1 (stereo not shown) [glucuronated endoxifen]			can no longer bind			
